Columns and labels:
[1] = system: NQO1 specific enzyme activity in BEAS-2B cells; test: BEAS-2B NQO1 MTT Assay; type: cell-based; conditions: Homo sapiens, BEAS-2B, 48 h, NQO1 specific activity induction
Summary of the method: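 BEAS-2B cells exposed to compound for 48 h at 37 °C, 5% CO2, then lysed. NQO1 activity in crude lysate read kinetically by MTT cocktail absorbance at 570 nm over 30 min. pEC50 from ΔOD/min versus log concentration, 3-parameter fit.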

Keap1/NRF2 = biological target: T1, Keap1/NRF2 (Homo sapiens, UniProt Q14145); test: NRF2-Keap1 FP Assay (Kelch domain (321-609) of Keap1, TAMRA-labeled NRF2 ETGE peptide); type: binding; conditions: Keap1 (321-609) 20 nM, Tamra labeled peptide 8 nM
T1 construct: Keap1 (321-609) is diluted to 40 nM (2×) in 1× assay buffer
Summary of the method: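 Fluorescence polarization competition: Keap1 Kelch (321-609) at 20 nM final and TAMRA-ETGE 16-mer peptide at 8 nM final with 3-fold compound dilutions, 1 h room temperature in Tris pH 8.0 buffer (NaCl, MgCl2, DTT, CHAPS, BSA). mP normalized to protein+peptide and peptide-alone controls; pIC50 by four-parameter fit.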

NRF2/Keap1 = biological target: T2, NRF2/Keap1 (Homo sapiens, UniProt Q14145); test: NRF2-Keap1 TR-FRET Low Protein Assay (full length NRF2 and full length Keap1); type: binding; conditions: low protein: 1.25 nM Keap1 FlagHis, 2.5 nM biotin-NRF2 added
T2 construct: full length NRF2 protein and full length Keap1 protein (Keap1 exists a dimer) are used
Text: In the NRF2-Keap1 TR-FRET (time-resolved fluorescence resonance energy transfer) low protein assay, full length NRF2 protein and full length Keap1 protein (Keap1 exists a dimer) are used. The assay detects a compound's ability to displace the binding of Keap1 FlagHis with biotinylated Avi-NRF2 protein. Biotin-NRF2 binds to streptavidin-europium (a component of the detection mix) and Keap1 FlagHis is recognized by anti-Flag APC (allophycocyanin) antibody (also a component of the detection mix). If binding occurs between the two proteins, there will be an energy transfer from the Eu+3 (donor) at 615 nm to the APC (acceptor) at 665 nm. A potential NRF2 inhibitor will cause a reduction in the TR-FRET signal by interfering with the binding of Keap1 to NRF2.
Ten nanoliters of 100× compound dose response curves (serial 3-fold dilutions) in DMSO are stamped using an Echo liquid handling system (Labcyte) into 384-well, low volume, black assay plates (Greiner, #784076), with DMSO in columns 6 and 18. An additional 90 nl DMSO is added to each well, to bring the total volume to 100 nl per well. The top concentration of compound is located in columns 1 and 13, with the serial dilutions going across the row. All reagents are diluted in assay buffer (50 mM Tris, pH 8.0, 5 mM MgCl2, 100 mM NaCl, 0.005% BSA, 1 mM DTT, and 2 mM CHAPS. The BSA, DTT, and CHAPS are added to the assay buffer on the day of assay. Using a Multidrop Combi (Thermo Electron Corporation) equipped with a metal tip dispenser, 5 ul of 1.25 nM Keap1 FlagHis protein is added to all wells of the compound plate, with the exception of the wells in column 18. Wells in column 18 receive 5 ul of assay buffer instead. Plates are centrifuged at 500 rpm for 1 minute, covered with a plate lid, and incubated at 37° C. for 2.25 hours. Plates are then removed from the incubator and allowed to cool to RT for 15 minutes. Five microliters of 2.5 nM biotin-NRF2 protein is then added to all wells of the plates and the plates are spun at 500 rpm for 1 minute, followed by incubating at 4° C. for 1.25 hours. The plates are then allowed to warm to RT for 15 minutes, followed by the addition of 10 ul of detection mix (1 nM Streptavidin Eu+ W1024 and 5 ug/ml mouse anti-DYKDDDDK IgG conjugated to SureLight APC antibody; both from Columbia Biosciences) to all wells. Plates are spun at 500 rpm for 1 minute, incubated for 1 hour at RT, and read on an Envision plate reader using a 320 nm excitation filter and 615 nm and 665 nm emission filters. Compound response (% inhibition) and potency (pIC50) are calculated based on the ratio of the two emissions (665 nm/615 nm) and then the transformed data is normalized against controls in the assay (control 1=1% DMSO in the presence of NRF2 and Keap1 protein and control 2=1% DMSO in the presence of only the NRF2 protein). Data analysis is handled using the software package Abase XE (Surrey, United Kingdom). The % inhibition values are calculated from the ratio (transformed) data by the equation: 100−(100*(compound response-average control 2)/(average control 1−average control 2)). For calculation of pIC50s, Abase XE uses a four parameter equation.

T2 sequence (Q14145 whole entry): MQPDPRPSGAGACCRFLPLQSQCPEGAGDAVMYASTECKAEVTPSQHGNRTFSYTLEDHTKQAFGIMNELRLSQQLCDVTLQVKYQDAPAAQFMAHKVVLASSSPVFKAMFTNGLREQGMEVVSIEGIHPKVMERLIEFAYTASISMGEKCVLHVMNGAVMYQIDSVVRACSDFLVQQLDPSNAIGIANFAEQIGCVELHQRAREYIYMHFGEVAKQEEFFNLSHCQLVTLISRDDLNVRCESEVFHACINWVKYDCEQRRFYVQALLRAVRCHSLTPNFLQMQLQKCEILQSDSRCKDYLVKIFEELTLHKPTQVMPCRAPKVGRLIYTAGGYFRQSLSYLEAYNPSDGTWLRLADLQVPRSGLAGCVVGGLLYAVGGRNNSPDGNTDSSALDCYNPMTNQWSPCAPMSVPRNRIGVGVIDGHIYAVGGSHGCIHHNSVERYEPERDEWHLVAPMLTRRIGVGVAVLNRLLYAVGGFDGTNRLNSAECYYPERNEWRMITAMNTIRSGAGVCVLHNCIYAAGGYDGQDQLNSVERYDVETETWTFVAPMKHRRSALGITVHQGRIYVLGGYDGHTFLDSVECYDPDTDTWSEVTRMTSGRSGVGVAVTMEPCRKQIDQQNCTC
T1 sequence (Q14145 321-609): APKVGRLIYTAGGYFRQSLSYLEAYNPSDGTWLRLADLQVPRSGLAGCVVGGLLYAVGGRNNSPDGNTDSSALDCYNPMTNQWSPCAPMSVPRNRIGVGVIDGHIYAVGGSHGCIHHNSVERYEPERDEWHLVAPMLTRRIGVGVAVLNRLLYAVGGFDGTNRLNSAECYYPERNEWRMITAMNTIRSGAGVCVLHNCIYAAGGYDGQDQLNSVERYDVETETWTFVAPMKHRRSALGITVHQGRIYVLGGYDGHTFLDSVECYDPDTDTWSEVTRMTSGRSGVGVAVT

| SMILES | EC50 [1] | IC50 (Keap1/NRF2) | IC50 (NRF2/Keap1) |
| --- | --- | --- | --- |
| Cn1cc([C@@H]2C[C@H]2c2c(C(=O)O)cnn2-c2cccc(N3CCC[C@H](CCC4CCCCC4)C3)c2)nn1 [Example 36c, 1-(3-((S)-3-(2-Cyclohexylethyl)piperidin-1-yl)phenyl)-5-((1R,2R)-2-(1-methyl-1H-1,2,3-triazol-4-yl)cyclopropyl)-1H-pyrazole-4-carboxylic Acid] | 10 to 100 nM | 10 to 100 nM | 10 to 100 nM |
| Cn1cc([C@@H]2C[C@H]2c2c(C(=O)O)cnn2-c2cccc(N3CCC[C@@H](CCC4CCCCC4)C3)c2)nn1 [Example 36d, 1-(3-((R)-3-(2-cyclohexylethyl)piperidin-1-yl)phenyl)-5-((1R,2R)-2-(1-methyl-1H-1,2,3-triazol-4-yl)cyclopropyl)-1H-pyrazole-4-carboxylic Acid] | 1 to 10 nM | 10 to 100 nM | 10 to 100 nM |
| Cn1cc([C@@H]2C[C@H]2c2c(C(=O)O)cnn2-c2cccc(N3CCC[C@@H](OCC4CCCCC4)C3)c2)nn1 [Example 43, 1-(3-((R)-3-(Cyclohexylmethoxy)piperidin-1-yl)phenyl)-5-((1R,2R)-2-(1-methyl-1H-1,2,3-triazol-4-yl)cyclopropyl)-1H-pyrazole-4-carboxylic Acid] | 100 to 1000 nM | 100 to 1000 nM | 10 to 100 nM |
